Source: ChEMBL document CHEMBL5390217, “Structure Confirmation of Dechlorotrichotoxin A through Stereoselective Total Synthesis” (2023)
The source made the active and inactive calls. The calls are words filed in the database; no cut-off is given here.

Key:
U-937 = experiment: Antiproliferative activity against human U-937 cells assessed as inhibition of cell growth at 30 uM incubated for 48 hrs in presence of 10% FBS by CCK-8 assay relative to control; assay type: functional; set-up: scale not given: the % may be the effect or the level left
MCF7 [1] = experiment: Antiproliferative activity against human MCF7 cells assessed as inhibition of cell growth at 30 uM incubated for 48 hrs in presence of 10% FBS by CCK-8 assay relative to control; assay type: functional; set-up: scale not given: the % may be the effect or the level left
MCF7 [2] = experiment: Antiproliferative activity against human MCF7 cells assessed as inhibition of cell growth at 30 uM incubated for 48 hrs in presence of 10% FBS by CCK-8 assay; assay type: functional, cell-based

SMILES	Activity (U-937) [%]	Activity (MCF7 [1]) [%]	Activity (MCF7 [2])
C=CC[C@@H](O)/C(C)=C/[C@@H](C)CCC(=C)Cc1ccccc1	44	21	
C=CC[C@@H](O)/C(C)=C/[C@@H](C)CCC(=CCl)Cc1ccccc1 (mixture of isomers)	20		inactive
